Results reported in US20260199294A1, “PEPTIDE DRUG CONJUGATES” (Oncopeptides Innovation AB, priority 2022, published 2026).

How the values were obtained:
[1] = system: BJ Fibroblasts (normal cells); assay: In vitro cytotoxicity (CellTiter-Glo, 72 h) in BJ fibroblasts; type: cell-based, human
Protocol: (§1) All cells were cultivated in RPMI medium 1640 (IX). All media was supplemented with […] penicillin/streptomycin, 10% heat inactivated FBS, 0.1 mM Sodium Pyruvate, 1×MEM NEAA (ThermoFisher) and 1 mM HEPES. The DERL-2 cells had higher FBS (20%) and 40 ng/mL IL-2 was added. hPBMCs were thawed and allowed to acclimatise overnight and then stimulated with 10 µg/mL PHA-M and 40 ng/mL IL-2 for 4 hours before being exposed to test compounds. All cells, except for hPBMCs, were grown to reach log phase before being exposed to the test compounds.
(§2) Test compounds were dissolved in 100% DMSO and added to a 384 assay plate. Additional DMSO was added to maintain the same final DMSO concentration (0.2%) in all wells. 25 μL cell suspension with a concentration of 100000 cells/mL was added to each well. The cells were cultured in a CO2 incubator at 37° C. for 72 h. Plates were equilibrated to room temperature for 30 minutes before adding 20 μL CellTiter-Glo® 2.0 (Promega) reagent to all wells. The plate was then allowed to stabilize for 20 minutes before recording the luminescence (Em filter 700 nm) in an Envision plate reader.

[2] = system: hPBMC (Human Peripheral blood mononuclear cells); assay: In vitro cytotoxicity (CellTiter-Glo, 72 h) in hPBMC; type: cell-based; conditions: stimulated with PHA-M and IL-2
Protocol: as §1, §2

CCOC(=O)[C@H](CC(C)C)NC(=O)[C@@H](N)CCc1nc2cc(N(CCCl)CCCl)ccc2n1C [Example compound 1, Ethyl (2S)-2-[[(2S)-2-amino-4-[5-[bis(2-chloroethyl)amino]-1-methyl-benzimidazol-2-yl]butanoyl]amino]-4-methyl-pentanoate]
IC50 [1]: 1070 nM | IC50 [2]: 5.4 nM
